According to the supplement of paper PMC13380429:
Where a name gives a salt, the structure may show the parent alone.

Assays:
Conditions in all cases: 72 h
Calu-3 [1] = assay: drug sensitivity score (DSS) for viability; higher = more toxic; extreme values may be limits of the assay
Caco-2 [2] = assay: as above
HepG2 [3] = assay: as above
U2OS [4] = assay: as above
Vero E6 [5] = assay: as above
Calu-3 [6] = assay: cell viability relative to DMSO; higher = less toxic
Caco-2 [7] = assay: as above
HepG2 [8] = assay: as above
U2OS [9] = assay: as above
Vero E6 [10] = assay: as above
Calu-3 [11] = assay: relative viability EC50 (midpoint between 100% and the lowest measured viability); higher = less toxic
Caco-2 [12] = assay: as above
HepG2 [13] = assay: as above
U2OS [14] = assay: as above
Vero E6 [15] = assay: as above

| Structure (SMILES) | drug sensitivity score (Calu-3 [1]) | drug sensitivity score (Caco-2 [2]) | drug sensitivity score (HepG2 [3]) | drug sensitivity score (U2OS [4]) | drug sensitivity score (Vero E6 [5]) | cell viability (Calu-3 [6]; 1 nM) | cell viability (Calu-3 [6]; 10 nM) | cell viability (Calu-3 [6]; 100 nM) | cell viability (Calu-3 [6]; 1000 nM) | cell viability (Calu-3 [6]; 10000 nM) | cell viability (Caco-2 [7]; 1 nM) | cell viability (Caco-2 [7]; 10 nM) | cell viability (Caco-2 [7]; 100 nM) | cell viability (Caco-2 [7]; 1000 nM) | cell viability (Caco-2 [7]; 10000 nM) | cell viability (HepG2 [8]; 1 nM) | cell viability (HepG2 [8]; 10 nM) | cell viability (HepG2 [8]; 100 nM) | cell viability (HepG2 [8]; 1000 nM) | cell viability (HepG2 [8]; 10000 nM) | cell viability (U2OS [9]; 1 nM) | cell viability (U2OS [9]; 10 nM) | cell viability (U2OS [9]; 100 nM) | cell viability (U2OS [9]; 1000 nM) | cell viability (U2OS [9]; 10000 nM) | cell viability (Vero E6 [10]; 1 nM) | cell viability (Vero E6 [10]; 10 nM) | cell viability (Vero E6 [10]; 100 nM) | cell viability (Vero E6 [10]; 1000 nM) | cell viability (Vero E6 [10]; 10000 nM) | relative viability EC50 (Calu-3 [11]) | relative viability EC50 (Caco-2 [12]) | relative viability EC50 (HepG2 [13]) | relative viability EC50 (U2OS [14]) | relative viability EC50 (Vero E6 [15]) |
| --- | --- | --- | --- | --- | --- | --- | --- | --- | --- | --- | --- | --- | --- | --- | --- | --- | --- | --- | --- | --- | --- | --- | --- | --- | --- | --- | --- | --- | --- | --- | --- | --- | --- | --- | --- |
| O=[N+]([O-])c1cccc2c(Br)n[nH]c12 [3-bromo-7-nitroindazole] | 0 | 0 | 0 | 0 | 0 | 102% | 88.4% | 97.3% | 87% | 98.2% | 106% | 102% | 93.8% | 104% | 99.3% | 94.4% | 99% | 98.3% | 97.5% | 102% | 97.6% | 101% | 99% | 104% | 98.8% | 100% | 97.5% | 98.6% | 95.8% | 91.2% | > 10 µM | > 10 µM | > 10 µM | > 10 µM | > 10 µM |
| NS(=O)(=O)c1ccc2c(c1)C1C=CCC1C(c1ccc(Br)cc1)N2 (stereo not given) [4BP-TQS] | 0 | 0 | 0.2 | 0 | 0 | 110% | 89.3% | 101% | 96.3% | 105% | 102% | 97.1% | 99.6% | 98.5% | 97.1% | 101% | 105% | 89.5% | 91.5% | 94% | 97.8% | 98.6% | 103% | 96.6% | 97.5% | 104% | 99.1% | 102% | 104% | 100% | > 10 µM | > 10 µM | > 10 µM | > 10 µM | > 10 µM |
| CCCN(CCC)[C@H]1CCc2ccc(O)cc2C1 [7-hydroxy-DPAT] | 0 | 0 | 0 | 0 | 0 | 92.7% | 89.7% | 98.7% | 102% | 96% | 96.5% | 95.4% | 106% | 100% | 96.4% | 112% | 106% | 92.8% | 99.9% | 99.5% | 101% | 97.1% | 101% | 104% | 103% | 101% | 105% | 101% | 104% | 99.4% | > 10 µM | > 10 µM | > 10 µM | > 10 µM | > 10 µM |
| C/C=C1\[C@H]2C=C(C)C[C@]1(N)c1ccc(=O)[nH]c1C2 [(-)-Huperzine A] | 0 | 0 | 0 | 0 | 0 | 91% | 96.7% | 96.1% | 106% | 101% | 103% | 97.7% | 90.6% | 100% | 107% | 106% | 97.4% | 102% | 93% | 97.5% | 95.1% | 101% | 98.8% | 103% | 98.3% | 93% | 96.8% | 98% | 90.7% | 107% | > 10 µM | > 10 µM | > 10 µM | > 10 µM | > 10 µM |
| COCC1(CO)C(=O)C2CCN1CC2 (stereo not given) [APR-246] | 0 | 0 | 0 | 0 | 0 | 96.7% | 87.5% | 111% | 90.4% | 94.5% | 99.5% | 94.7% | 95.1% | 94.2% | 94.6% | 93% | 99.7% | 96.6% | 112% | 91.8% | 100% | 94.9% | 99.8% | 96.3% | 99.5% | 97.1% | 99.3% | 96.6% | 97.8% | 93.1% | > 10 µM | > 10 µM | > 10 µM | > 10 µM | > 10 µM |
| C=CC(=O)Nc1cccc(Nc2nc(Nc3ccc(OCCOC)cc3)ncc2F)c1 [AVL-292] | 4.4 | 7.6 | 6.8 | 6.4 | 7.7 | 100% | 106% | 92.2% | 97.2% | 27.2% | 85.2% | 90.8% | 102% | 78.3% | 21.5% | 101% | 95.7% | 101% | 80.5% | 29.7% | 100% | 100% | 94.9% | 91.5% | 9% | 96.9% | 94.5% | 94.9% | 82.5% | 11.9% | 2.87 µM | 1.47 µM | 1.47 µM | 2.39 µM | 1.74 µM |
| N#Cc1ccc2[nH]c(O)c(-c3ccc(CN4CCOCC4)cn3)c2c1 [AZD1080] | 0 | 0.1 | 0.2 | 0 | 0.2 | 105% | 107% | 100% | 112% | 91.2% | 96.3% | 100% | 106% | 113% | 84.6% | 107% | 99.3% | 102% | 112% | 82.7% | 95.3% | 105% | 95.8% | 105% | 99.5% | 99.1% | 97.6% | 98.2% | 108% | 82% | > 10 µM | > 10 µM | > 10 µM | > 10 µM | > 10 µM |
| CC[C@@H]1C(=O)N(C)c2cnc(Nc3ccc(C(=O)NC4CCN(C)CC4)cc3OC)nc2N1C1CCCC1 [BI-2536] | 8.6 | 13.6 | 26.1 | 19.8 | 12.8 | 93.3% | 97.3% | 85.4% | 77.7% | 3.8% | 94.4% | 96.5% | 56.8% | 61.3% | 31.5% | 106% | 92.2% | 27.4% | 24.2% | 7.7% | 97% | 103% | 53.1% | 28% | 8.1% | 96.2% | 98.7% | 103% | 37.4% | 1.1% | 1.66 µM | 0.148 µM | 0.0445 µM | 0.132 µM | 0.805 µM |
| CC1(C)CCC(C)(C)c2cc(C3(c4ccc(C(=O)O)cc4)OCCO3)ccc21 [BMS-649] | 0 | 0 | 0 | 0 | 0 | 96.7% | 99% | 100% | 91.5% | 109% | 92.7% | 95.5% | 93.1% | 100% | 101% | 109% | 87.6% | 113% | 108% | 103% | 95.2% | 98.4% | 101% | 103% | 99% | 96% | 97.6% | 100% | 92.4% | 97.8% | > 10 µM | > 10 µM | > 10 µM | > 10 µM | > 10 µM |
| C=CCN1C[C@H](C)N([C@H](c2ccc(C(=O)N(CC)CC)cc2)c2cccc(O)c2)C[C@H]1C [BW-373U86] | 0 | 0 | 0 | 0 | 0 | 92.9% | 103% | 107% | 102% | 101% | 101% | 102% | 96.1% | 96.7% | 95.2% | 95.5% | 93.7% | 101% | 86.9% | 96.3% | 100% | 102% | 96% | 104% | 97.8% | 105% | 100% | 105% | 94.9% | 104% | > 10 µM | > 10 µM | > 10 µM | > 10 µM | > 10 µM |
| CCC[C@@H]1C[C@@H](C(=O)N[C@@H]([C@H]2O[C@H](SC)[C@H](O)[C@@H](O)[C@H]2O)[C@H](C)Cl)N(C)C1 [CLINDAMYCIN HYDROCHLORIDE] | 0 | 0 | 0 | 0 | 0 | 100% | 96.7% | 98.9% | 102% | 102% | 95.6% | 95.7% | 95.3% | 108% | 108% | 103% | 93% | 104% | 100% | 97.6% | 97.6% | 102% | 99.2% | 105% | 103% | 95.3% | 89.8% | 93.8% | 91.2% | 104% | > 10 µM | > 10 µM | > 10 µM | > 10 µM | > 10 µM |
| CCNC1(C(N)=O)CCN(c2ncnc3c2nc(-c2ccccc2Cl)n3-c2ccc(Cl)cc2)CC1 [CP-945,598] | 0 | 3.1 | 0.4 | 0 | 0 | 109% | 102% | 97.5% | 108% | 104% | 96.2% | 98.9% | 88.3% | 80.7% | 89.3% | 103% | 95.6% | 100% | 95.3% | 86.6% | 104% | 104% | 101% | 98.1% | 95.7% | 101% | 103% | 98.6% | 101% | 104% | > 10 µM | > 10 µM | > 10 µM | > 10 µM | > 10 µM |
| S=C(S)OC1CC2CC1C1CCCC21 (stereo not given) [D609] | 0 | 0 | 0 | 0 | 0 | 99.3% | 102% | 104% | 103% | 98% | 100% | 99.2% | 102% | 105% | 102% | 103% | 98.7% | 102% | 100% | 108% | 100% | 106% | 96.3% | 102% | 96.6% | 98.7% | 98% | 102% | 96% | 98.5% | > 10 µM | > 10 µM | > 10 µM | > 10 µM | > 10 µM |
| CN1[C@@H]2CC[C@H]1C[C@@H](OC(=O)N1Cc3ccccc3NC1=O)C2 [DAU-5884] | 0 | 0 | 0 | 0 | 0 | 96.5% | 105% | 98.1% | 99.3% | 94.4% | 93.3% | 91.7% | 89.5% | 97.3% | 92.7% | 105% | 93.3% | 94.5% | 110% | 97.3% | 97.2% | 102% | 94.4% | 100% | 100% | 101% | 94.6% | 97.9% | 96.8% | 91.3% | > 10 µM | > 10 µM | > 10 µM | > 10 µM | > 10 µM |
| CCCC[C@@]1(C2CCCC2)Cc2cc(OCCCC(=O)O)c(Cl)c(Cl)c2C1=O [DCPIB] | 0 | 0.9 | 0 | 0 | 0 | 87% | 96.4% | 106% | 89.1% | 118% | 105% | 108% | 103% | 88.3% | 85.8% | 109% | 98.1% | 99.1% | 92.5% | 94.8% | 95.7% | 90.4% | 97.4% | 93.9% | 94.5% | 109% | 109% | 99.7% | 100% | 101% | > 10 µM | > 10 µM | > 10 µM | > 10 µM | > 10 µM |
